13 compounds from patent publication EP4800015A1, “AZABICYCLO DERIVATIVE AND PREPARATION METHOD THEREFOR, AND USE” (Zhejiang Hisun Pharmaceutical Co., Ltd., priority 2023, dated 2025) can be followed below.

In one test the target is T1, recombinant human WRN (Homo sapiens, UniProt Q14191).
T1 construct: purchased BPS 101264
Briefly: Inhibition of WRN enzyme activity (ATPase), ADP-Glo Kinase Assay. The format is biochemical. The note with it: WRN protein 5 nM, Flap 0.1 nM, ATP 30 µM; read-out: IC50. Put shortly: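 Recombinant human WRN (5 nM) was preincubated with compound (1000–0.004 nM) for 15 min at room temperature. Flap26 5'-flap DNA (0.1 nM) and 30 µM ATP were then added for 10 min in Tris pH 7.5, MgCl2, NaCl, BSA, Pluronic buffer. ADP was detected by ADP-Glo luminescence, and IC50 was obtained by nonlinear regression versus a 0.1% DMSO control.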
(ADP-Glo turns the ADP formed in a reaction into a luminescent signal.)

For a further test, the system named is SW48 cells. Briefly: Inhibition of SW48 cell proliferation (CellTiter-Glo). The test is classed as cell-based. As to conditions: Homo sapiens; SW48 cells (MSI-H), 120 hours. The method, then: The following method was used to determine the effect of the compounds of the present disclosure on SW48 cell proliferation. SW48 cells (MSI-H cells) were purchased from American ATCC cell bank and cultured in Leibovitz's L-15 medium (Gibco, catalog No. 11415064) containing 10% fetal bovine serum, 100 U penicillin, and 100 µg/mL streptomycin. Cell viability was determined by CellTiter-Glo® Luminescent Cell Viability Assay kit (Promega, catalog No. G7573).
(§1) The experiment was performed according to the steps of the kit manual, which is briefly described as follows: test compounds were first dissolved in DMSO to prepare 10 mM stock solutions, and then diluted with medium to prepare test samples, with final compound concentrations ranging from 10000 nM to 1.52 nM. Cells in logarithmic growth phase were seeded into 96-well cell culture plates at a density of 500 cells per well and cultured overnight at 37 °C in an air incubator, then test compounds were added and cultivation continued for 120 hours. After the cultivation was completed, 40 µL of CellTiter-Glo detection reagent was added to each well, shaken for 5 minutes, and then left to stand for 10 minutes. Luminescence values of each well were read on a microplate reader using Luminescence mode. The percentage inhibition at each concentration point was calculated by comparison with the control group (0.1% DMSO), and then IC50 values for the compounds for inhibition of cell proliferation were obtained using nonlinear regression analysis of compound concentration logarithm versus inhibition rate in GraphPad Prism 9 software, as shown in Table 2.
The IC50 value results of the compounds of the present disclosure are represented by A, wherein "A" indicates 1 nM < IC50 ≤ 100 nM. Table 2 IC50 data for inhibition of SW48 cell proliferation by the compounds of the present disclosure
Background: Cellular ATP, detected with luciferase, serves as a proxy for viable cell number.

The test system of another test is RL95-2 cells. Briefly: Inhibition of RL95-2 cell proliferation (CellTiter-Glo). The format is cell-based. As to conditions: Homo sapiens; RL95-2 cells (MSI-H), 120 hours. On the procedure: The following method was used to determine the effect of the compounds of the present disclosure on RL95-2 cell proliferation. RL95-2 cells (MSI-H cells) were purchased from Cell Resource Center of Shanghai Institutes for Biological Sciences, Chinese Academy of Sciences, and cultured in DMEM/F12 medium (Gibco, catalog No. A4192001) containing 10% fetal bovine serum, 100 U penicillin, and 100 µg/mL streptomycin. Cell viability was determined by CellTiter-Glo® Luminescent Cell Viability Assay kit (Promega, catalog No. G7573).
as §1, with “a 5% CO2” for “an air”, “incubator, and” for “incubator,”, “50” for “40”, “3.” for “2.”
The IC50 value results of the compounds of the present disclosure are represented by A, wherein "A" indicates 1 nM < IC50 ≤ 100 nM. Table 3 IC50 data for inhibition of RL95-2 cell proliferation by the compounds of the present disclosure

Structures are written as SMILES.

T1 sequence (Q14191 whole entry): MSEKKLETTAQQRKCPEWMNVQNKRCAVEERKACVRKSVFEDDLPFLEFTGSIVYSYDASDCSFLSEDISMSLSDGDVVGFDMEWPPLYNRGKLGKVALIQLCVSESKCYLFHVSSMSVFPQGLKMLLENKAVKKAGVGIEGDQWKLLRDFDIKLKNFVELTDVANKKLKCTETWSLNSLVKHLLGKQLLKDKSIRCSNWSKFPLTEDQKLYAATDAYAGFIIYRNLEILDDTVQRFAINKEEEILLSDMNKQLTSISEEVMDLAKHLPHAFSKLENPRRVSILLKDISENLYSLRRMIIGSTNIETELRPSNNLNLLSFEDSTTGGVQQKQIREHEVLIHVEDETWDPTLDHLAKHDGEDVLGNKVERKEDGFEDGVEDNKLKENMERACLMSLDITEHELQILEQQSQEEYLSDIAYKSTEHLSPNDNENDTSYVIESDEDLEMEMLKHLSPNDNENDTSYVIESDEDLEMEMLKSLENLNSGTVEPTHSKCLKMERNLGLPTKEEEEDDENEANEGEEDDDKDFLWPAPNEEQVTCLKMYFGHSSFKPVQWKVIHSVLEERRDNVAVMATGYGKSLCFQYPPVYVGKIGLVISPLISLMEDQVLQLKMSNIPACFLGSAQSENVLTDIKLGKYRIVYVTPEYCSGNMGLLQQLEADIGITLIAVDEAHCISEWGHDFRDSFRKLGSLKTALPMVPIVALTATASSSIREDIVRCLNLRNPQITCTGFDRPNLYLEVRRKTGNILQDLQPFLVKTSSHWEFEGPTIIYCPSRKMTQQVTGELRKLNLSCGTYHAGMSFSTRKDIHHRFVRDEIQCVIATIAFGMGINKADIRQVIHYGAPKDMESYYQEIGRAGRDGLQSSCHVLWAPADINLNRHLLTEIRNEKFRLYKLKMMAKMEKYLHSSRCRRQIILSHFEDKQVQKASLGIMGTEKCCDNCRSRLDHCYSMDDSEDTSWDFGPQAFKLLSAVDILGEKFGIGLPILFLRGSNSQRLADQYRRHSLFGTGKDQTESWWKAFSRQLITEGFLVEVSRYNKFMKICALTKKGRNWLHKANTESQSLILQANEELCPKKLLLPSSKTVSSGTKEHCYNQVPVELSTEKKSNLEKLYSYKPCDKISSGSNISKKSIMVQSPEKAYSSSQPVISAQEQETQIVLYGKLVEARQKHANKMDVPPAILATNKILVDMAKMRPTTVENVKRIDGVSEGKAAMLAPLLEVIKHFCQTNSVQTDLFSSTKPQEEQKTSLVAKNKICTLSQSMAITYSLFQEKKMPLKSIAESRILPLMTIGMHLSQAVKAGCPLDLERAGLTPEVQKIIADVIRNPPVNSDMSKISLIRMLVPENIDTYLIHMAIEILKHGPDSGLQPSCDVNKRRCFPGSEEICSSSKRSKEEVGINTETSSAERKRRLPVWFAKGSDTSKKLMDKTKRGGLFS

For the compound `CCc1c(N2CCN(C(=O)c3ncccc3O)CC2)c(=O)n2nc(-c3ccc4c(c3)CCO4)nc2n1CC(=O)Nc1ccc(C(F)(F)F)cc1Cl` [Example 104, N-(2-chloro-4-(trifluoromethyl)phenyl)-2-(2-(2,3-dihydrobenzofuran-5-yl)-5-ethyl-6-(4-(3-hydroxypicolinoyl)piperazin-1-yl)-7-oxo-[1,2,4]triazolo[1,5-a]pyrimidin-4(7H)-yl)acetamide], the IC50 on recombinant human WRN and in the test with SW48 cells was 1 to 100 nM throughout.

Regarding `CCc1c(N2CCN(C(=O)c3ncnc(C)c3O)CC2)c(=O)n2nc(C3=CC4CC4C3)nc2n1CC(=O)Nc1ccc(S(F)(F)(F)(F)F)cc1Cl` (centres unmarked) [Example 167, 2-(2-(bicyclo[3.1.0]hex-2-en-3-yl)-5-ethyl-6-(4-(5-hydroxy-6-methylpyrimidine-4-carbonyl)piperazin-1-yl)-7-oxo-[1,2,4]triazolo[1,5-a]pyrimidin-4(7H)-yl)-N-(2-chloro-4-(pentafluoro-λ^6-sulfaneyl)phenyl)acetamide], the IC50 at recombinant human WRN and with RL95-2 cells was 1 to 100 nM in each case.

In the case of `CCc1c(N2CCN(C(=O)c3ncnc(C)c3O)CC2)c(=O)n2nc(-c3cccc4ccoc34)nc2n1CC(=O)Nc1ccc(C(F)(F)F)cc1Cl` [Example 69, 2-(2-(benzofuran-7-yl)-5-ethyl-6-(4-(5-hydroxy-6-methylpyrimidine-4-carbonyl)piperazin-1-yl)-7-oxo-[1,2,4]triazolo[1,5-a]pyrimidin-4(7H)-yl)-N-(2-chloro-4-(trifluoromethyl)phenyl)acetamide], the IC50 at recombinant human WRN was < 1 nM; with RL95-2 cells, 1 to 100 nM.

On to `CCc1c(N2CCN(C(=O)c3ncnc(C)c3O)CC2)c(=O)n2nc(C3=CC4CC4C3)nc2n1CC(=O)Nc1ccc(S(F)(F)(F)(F)F)cc1` (centres unmarked) [Example 66, 2-(2-(Bicyclo[3.1.0]hex-2-en-3-yl)-5-ethyl-6-(4-(5-hydroxy-6-methylpyrimidine-4-carbonyl)piperazin-1-yl)-7-oxo-[1,2,4]triazolo[1,5-a]pyrimidin-4(7H)-yl)-N-(4-(pentafluoro-λ^6-thiol)phenyl)acetamide], for which the 50% inhibitory concentration (IC50) on recombinant human WRN was < 1 nM; in the test on RL95-2 cells it was 1 to 100 nM.

As for `CCc1c(N2CCN(C(=O)c3ncnc(C)c3O)CC2)c(=O)n2nc(-c3cc4ccccc4n3C)nc2n1CC(=O)Nc1ccc(C(F)(F)F)cc1Cl` [Example 74, N-(2-chloro-4-(trifluoromethyl)phenyl)-2-(5-ethyl-6-(4-(5-hydroxy-6-methylpyrimidine-4-carbonyl)piperazin-1-yl)-2-(1-methyl-1H-indol-2-yl)-7-oxo-[1,2,4]triazolo[1,5-a]pyrimidin-4(7H)-yl)ac etamide], the half-maximal inhibitory concentration (IC50) at recombinant human WRN and in the test on RL95-2 cells was 1 to 100 nM in each case.

As to `CCc1c(N2CCN(C(=O)c3ncccc3O)CC2)c(=O)n2nc(C3=CC4CC(=O)CC4C3)nc2n1CC(=O)Nc1ccc(S(F)(F)(F)(F)F)cc1` (centres unmarked) [Example 71, 2-(5-ethyl-6-(4-(3-hydroxypicolinoyl)piperazin-1-yl)-7-oxo-2-(5-oxo-1,3a,4,5,6,6a-hexahydropentalen-2-yl)-[1,2,4]triazolo[1,5-a]pyrimidin-4(7H)-yl)-N-(4-(pentafluoro-λ^6-sulfaneyl)phenyl)acetamide], the IC50 at recombinant human WRN is < 1 nM; in the test with RL95-2 cells, 1 to 100 nM.

For `Cc1ncnc(C(=O)N2CCN(c3c(C4CC4)n(CC(=O)Nc4ccc(C(F)(F)F)cc4Cl)c4nc(-c5ccc6c(c5)CCO6)nn4c3=O)CC2)c1O` [Example 152, N-(2-chloro-4-(trifluoromethyl)phenyl)-2-(5-cyclopropyl-2-(2,3-dihydrobenzofuran-5-yl)-6-(4-(5-hydroxy-6-methylpyrimidine-4-carbonyl)piperazin-1-yl)-7-oxo-[1,2,4]triazolo[1,5-a]pyrimidin-4 (7H)-yl)acetamide], the half-maximal inhibitory concentration (IC50) at recombinant human WRN and in the test with RL95-2 cells was 1 to 100 nM throughout.

In the case of `CCc1c(N2CCN(C(=O)c3ncnc(C)c3O)CC2)c(=O)n2nc(-c3cc4ccccc4[nH]3)nc2n1CC(=O)Nc1ccc(C(F)(F)F)cc1Cl` [Example 73, N-(2-Chloro-4-(trifluoromethyl)phenyl)-2-(5-ethyl-6-(4-(5-hydroxy-6-methylpyrimidine-4-carbonyl)piperazin-1-yl)-2-(1H-indol-2-yl)-7-oxo-[1,2,4]triazolo[1,5-a]pyrimidin-4(7H)-yl)acetamide], the IC50 at recombinant human WRN and in the test on RL95-2 cells was 1 to 100 nM each time.

As for `CCc1c(N2CCN(C(=O)c3ncnc(C)c3O)CC2)c(=O)n2nc(-c3ccc4c(c3)CCO4)nc2n1CC(=O)Nc1ccc(SC(F)(F)F)cc1F` [Example 89, 2-(2-(2,3-Dihydrobenzofuran-5-yl)-5-ethyl-6-(4-(5-hydroxy-6-methylpyrimidine-4-carbonyl)piperazin-1-yl)-7-oxo-[1,2,4]triazolo[1,5-a]pyrimidin-4(7H)-yl)-N-(2-fluoro-4-((trifluoromethyl)thio)phenyl)acetamide], the IC50 on recombinant human WRN and in the test with RL95-2 cells was 1 to 100 nM each time.

For `CCc1c(N2CCN(C(=O)c3ncnc(C)c3O)CC2)c(=O)n2nc(C3=CCCCOC3)nc2n1CC(=O)Nc1ccc(S(F)(F)(F)(F)F)cc1` [Example 63, 2-(5-ethyl-6-(4-(5-hydroxy-6-methylpyrimidine-4-carbonyl)piperazin-1-yl)-7-oxo-2-(2,5,6,7-tetra hydrooxepin-3-yl)-[1,2,4]triazolo[1,5-a]pyrimidin-4(7H)-yl)-N-(4-(pentafluoro-λ^6-sulfaneyl)phenyl)acetamide], the IC50 at recombinant human WRN and in the test on RL95-2 cells was 1 to 100 nM each time.

Take `CCc1c(N2CCN(C(=O)c3ncnc(C)c3O)CC2)c(=O)n2nc(C3=CCCCCC3)nc2n1CC(=O)Nc1ccc(S(F)(F)(F)(F)F)cc1Cl` [Example 70, N-(2-chloro-4-(pentafluoro-λ^6-sulfaneyl)phenyl)-2-(2-(cyclohept-1-en-1-yl)-5-ethyl-6-(4-(5-hydroxy-6-methylpyrimidine-4-carbonyl)piperazin-1-yl)-7-oxo-[1,2,4]triazolo[1,5-a]pyrimidin-4(7H) -yl)acetamide]: the IC50 at recombinant human WRN and with RL95-2 cells was 1 to 100 nM in each case.

`CCc1c(N2CCN(C(=O)c3ncnc(C)c3O)CC2)c(=O)n2nc(C3=CCC4(CC3)COC4)nc2n1CC(=O)Nc1ccc(C(F)(F)F)cc1Cl` [Example 65, N-(2-chloro-4-(trifluoromethyl)phenyl)-2-(5-ethyl-6-(4-(5-hydroxy-6-methylpyrimidine-4-carbonyl)piperazin-1-yl)-7-oxo-2-(2-oxaspiro[3.5]non-6-en-7-yl)-[1,2,4]triazolo[1,5-a]pyrimidin-4(7H)-yl)acetamide]: the IC50 on recombinant human WRN and in the test on RL95-2 cells was 1 to 100 nM each time.

In the case of `CCc1c(N2CCN(C(=O)c3ncnc(C)c3O)CC2)c(=O)n2nc(C3=CCCCOC3)nc2n1CC(=O)Nc1ccc(C(F)(F)F)cc1Cl` [Example 62, N-(2-chloro-4-(trifluoromethyl)phenyl)-2-(5-ethyl-6-(4-(5-hydroxy-6-methylpyrimidine-4-carbonyl)piperazin-1-yl)-7-oxo-2-(2,5,6,7-tetrahydrooxepin-3-yl)-[1,2,4]triazolo[1,5-a]pyrimidin-4(7H) -yl)acetamide], the IC50 at recombinant human WRN and in the test on RL95-2 cells was 1 to 100 nM each time.

A word on the IC50: it is the concentration needed to halve the response being measured.
